Experimental data from US20260184706A1, “PHENYLSULFONAMIDE DERIVATIVES, PREPARATION METHOD THEREFOR, AND PHARMACEUTICAL COMPOSITION FOR PREVENTION OR TREATMENT OF CANCER CONTAINING SAME AS ACTIVE INGREDIENT” (Korea Research Institute of Chemical Technology, priority 2022, published 2026).

What was measured:
[1] = target: recombinant human GCN2 protein (Homo sapiens, UniProt Q9P2K8); assay: General control nonderepressible 2 (GCN2) inhibitory capacity, 33P-ATP filter assay; format: biochemical; settings: recombinant human GCN2, 70 uM [gamma-33P-ATP], 40 minutes, room temperature
ATF4 = assay: Inhibition of ATF4, downstream factor of ISR, in HT-1080 cells, Western blot (FIG. 1); format: cell-based, human; settings: amino acid deficiency, compound 50 nM, 24 hours
Method: (§1) <Experimental Example 5> Evaluation of Inhibitory Efficacy of ISR-Related Kinase GCN2 Under Amino Acid Deficiency Condition Using Western Blot
(§2) HT-1080 cells, a human fibrosarcoma cell line, were cultured in RPMI-1640 medium supplemented with 10% FBS, penicillin (penicillin; 100 IU/ml), and streptomycin (streptomycin; 100 μg/ml). Cells (1×10^6 cells/ml) were seeded onto 100 mm plates (polypropylene tissue culture plate) and incubated for 24 hours in a 37° C., 5% CO2 incubator before being used for experiments.
(§3) The following method was used to achieve amino acid deficiency conditions in cells. After 24 hours of cell culture, the cells were cultured in amino acids and L-glutamine-free RPMI-1640 medium supplemented with 10% FBS, penicillin (100 IU/ml), and streptomycin (100 μg/ml). After 24 hours of cell culture in RPMI-1640 without amino acids and L-glutamine, the compound prepared at a concentration of 50 nM was dispensed onto each plate and cultured for 24 hours in a 37° C., 5% CO2 incubator.
(§4) In order to measure the signal transduction inhibitory efficacy of GCN among the ISR-related kinases according to the present invention, the following experiment was performed using SDS-PAGE. The fibrosarcoma cell line HT-1080 cells cultured on plates as described above were washed with PBS after removing the culture medium. After removing PBS, the cells were lysed by adding a radio-immunoprecipitation assay buffer (RIPA buffer) containing 50 mM Tris (pH 7.4), 150 mM NaCl, 1% NP-40, 0.5% sodium deoxycholate, 2 mM sodium fluoride, 2 mM EDTA, 0.1% SDS, and a protease/phosphatase inhibitor cocktail to the plate. After centrifugation at 4° C., 13,000×g for 15 minutes, the protein in the upper layer was collected, and the protein concentration was measured at 562 nm using BCA (bicinchoninc acid) reagent, and the amount of protein in all samples was prepared at 20-50 μg.
(§5) After making the total volume the same using the sample buffer and RIPA buffer, it was heated at 97° C. for 5 minutes. Then, electrophoresis was performed on 8% or 12% SDS-PAGE at 80 V for 30 minutes and at 160 V for 1 hour and 30 minutes. After electrophoresis, the SDS-PAGE gel was transferred to an NC membrane (nitrocellulose membrane) at 90 V for 2 hours. The NC membrane was placed in TBST (tris buffer saline tween-20; 20 mM tris, 137 mM sodium chloride, 0.1% tween-20, pH 8.0) containing 5% non-fat skim milk, placed on a shaker, and reacted at room temperature for 1 hour.
(§6) Each primary antibody was diluted in TBST containing 5% non-fat skim milk, poured onto the NC membrane, and reacted at 4° C. for 24 hours. The membrane was washed three times for 10 minutes each with TBST. The secondary antibodies (anti-rabbit IgG and anti-mouse IgG labeled with horseradish peroxidase (HRP)) were diluted in TBST containing 5% non-fat skim milk and reacted with the membrane at room temperature for 1 hour. Upon completion of the reaction, the membrane was washed three times with TBST for 10 minutes each. Protein expression bands were detected by a chemiluminescence image analyzer (Image Quant LAS 500) after the ECL solution was reacted with the NC membrane.
FIG. 1 is a set of photographs confirming the mechanism proteins that react upon ISR activation, wherein the numbers correspond to example numbers of the present invention. […] They are also known to have an effect on increasing the expression of CHOP (GADD153), the most downstream factor of the mechanism. […] Thus, in addition to the activation of ISR by amino acid deficiency, a significant effect can be expected on the mechanism of inhibition of the activity of PERK, an ISR-related kinase, due to endoplasmic reticulum stress response.

phosphorylated GCN2 = target: T1, phosphorylated GCN2 (Homo sapiens, UniProt Q9P2K8); assay: Inhibition of phosphorylated GCN2 under amino acid deficiency in HT-1080 cells, Western blot; format: cell-based; settings: compound 50 nM, 24 hours; for Phospho-GCN2 inhibition: symbols ◯ / X not defined
T1 construct: endogenous in cells; host or cells: HT-1080
Method: as §1, §2, §3, §4, §5, §6
GCN2, a key kinase of the integrated stress response (ISR), is phosphorylated in response to amino acid deficiency.

[2] = target: recombinant human HRI protein (Homo sapiens, UniProt Q9BQI3); assay: eIF2-alpha kinase heme-regulated inhibitor (HRI) inhibitory capacity, 33P-ATP filter assay; format: biochemical; settings: 45 uM [gamma-33P-ATP], 40 minutes, room temperature
Method: <Experimental Example 3> Evaluation of eIF2-Alpha Kinase Heme-Regulated Inhibitor (HRI) Inhibitory Capacity
A recombinant human HRI protein was mixed with the compound in a reaction solution (50 mM Tris/HCl pH 7.5, 0.04 mM EDTA, 300 uM RSRSRSRSRSRSRSR, 10 mM Magnesium acetate, 45 uM [gamma-33P-ATP]) and reacted at room temperature for 40 minutes. Then, the reaction was terminated by adding phosphoric acid (0.5%) to the reaction mixture, and […] of the reaction solution was dropped onto a P30 filter. The filter was washed four times in a 0.425% phosphoric acid solution for 4 minutes, then […] washed once more in methanol, dried, and the HRI activity was measured by scintillation counting. […] The compound was diluted by 1/3 from the highest concentration of 1 uM and treated with a total of 9 concentrations to evaluate the degree of inhibition.

[3] = target: T2, recombinant human PERK protein (Homo sapiens, UniProt Q9NZJ5); assay: PKR-like endoplasmic reticulum kinase (PERK) inhibitory capacity, 33P-ATP filter assay; format: biochemical; settings: 15 uM [gamma-33P-ATP], 40 minutes, room temperature
T2 sequence (Q9NZJ5 30-1116): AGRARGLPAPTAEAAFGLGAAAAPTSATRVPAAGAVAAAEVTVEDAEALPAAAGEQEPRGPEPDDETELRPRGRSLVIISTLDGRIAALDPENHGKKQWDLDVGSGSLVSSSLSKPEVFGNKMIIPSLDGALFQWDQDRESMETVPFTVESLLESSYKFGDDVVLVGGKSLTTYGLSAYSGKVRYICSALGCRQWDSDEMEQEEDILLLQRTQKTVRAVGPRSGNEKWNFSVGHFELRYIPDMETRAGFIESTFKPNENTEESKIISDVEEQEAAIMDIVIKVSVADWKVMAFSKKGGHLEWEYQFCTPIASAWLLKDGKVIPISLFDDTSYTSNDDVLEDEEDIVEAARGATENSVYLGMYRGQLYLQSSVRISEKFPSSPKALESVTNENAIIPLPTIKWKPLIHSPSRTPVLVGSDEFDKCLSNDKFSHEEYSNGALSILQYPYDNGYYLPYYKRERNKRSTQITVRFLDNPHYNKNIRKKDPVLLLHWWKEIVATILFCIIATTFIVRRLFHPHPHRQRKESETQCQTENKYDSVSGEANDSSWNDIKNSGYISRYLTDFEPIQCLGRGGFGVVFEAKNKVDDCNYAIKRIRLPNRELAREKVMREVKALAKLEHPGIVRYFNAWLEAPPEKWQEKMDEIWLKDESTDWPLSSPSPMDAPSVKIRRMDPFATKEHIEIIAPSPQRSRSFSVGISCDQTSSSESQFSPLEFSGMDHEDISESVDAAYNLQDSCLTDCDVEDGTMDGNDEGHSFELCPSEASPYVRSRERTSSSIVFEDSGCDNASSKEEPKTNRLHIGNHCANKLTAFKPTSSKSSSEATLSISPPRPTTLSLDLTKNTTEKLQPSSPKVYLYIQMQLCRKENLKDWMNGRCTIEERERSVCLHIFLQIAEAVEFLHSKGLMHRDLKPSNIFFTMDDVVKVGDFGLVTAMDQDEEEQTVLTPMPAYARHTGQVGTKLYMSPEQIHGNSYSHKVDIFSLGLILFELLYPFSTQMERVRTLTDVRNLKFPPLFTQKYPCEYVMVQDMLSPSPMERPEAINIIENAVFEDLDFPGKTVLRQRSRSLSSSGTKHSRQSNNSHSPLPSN
Method: <Experimental Example 1> Evaluation of PKR-Like Endoplasmic Reticulum Kinase (PERK) Inhibitory Capacity
(§7) A recombinant human PERK protein was mixed with the compound in a reaction solution (8 mM MOPS pH 7.0, 0.2 mM EDTA, 300 uM RSRSRSRSRSRSRSR, 10 mM Magnesium acetate, 15 uM [gamma-33P-ATP]) and reacted at room temperature for 40 minutes. Then, the reaction was terminated by adding phosphoric acid (0.5%) to the reaction mixture, and 10 ul of the reaction solution was dropped onto a P30 filter. The filter was washed four times in a 0.425% phosphoric acid solution for 4 minutes, then washed once more in methanol, dried, and the PERK activity was measured by scintillation counting. […] The compound was diluted by 1/3 from the highest concentration of 1 uM and treated with a total of 9 concentrations to evaluate the degree of inhibition.

[4] = target: recombinant human PKR protein (Homo sapiens, UniProt P19525); assay: Protein kinase R (PKR) inhibitory capacity, 33P-ATP filter assay; format: biochemical; settings: 15 uM [gamma-33P-ATP], 40 minutes, room temperature
Method: <Experimental Example 4> Evaluation of Protein Kinase R (PKR) Inhibitory Capacity
as §7, with “PKR” for “PERK”, “20” for “300”

Chain of recombinant human GCN2 protein (Q9P2K8 whole entry): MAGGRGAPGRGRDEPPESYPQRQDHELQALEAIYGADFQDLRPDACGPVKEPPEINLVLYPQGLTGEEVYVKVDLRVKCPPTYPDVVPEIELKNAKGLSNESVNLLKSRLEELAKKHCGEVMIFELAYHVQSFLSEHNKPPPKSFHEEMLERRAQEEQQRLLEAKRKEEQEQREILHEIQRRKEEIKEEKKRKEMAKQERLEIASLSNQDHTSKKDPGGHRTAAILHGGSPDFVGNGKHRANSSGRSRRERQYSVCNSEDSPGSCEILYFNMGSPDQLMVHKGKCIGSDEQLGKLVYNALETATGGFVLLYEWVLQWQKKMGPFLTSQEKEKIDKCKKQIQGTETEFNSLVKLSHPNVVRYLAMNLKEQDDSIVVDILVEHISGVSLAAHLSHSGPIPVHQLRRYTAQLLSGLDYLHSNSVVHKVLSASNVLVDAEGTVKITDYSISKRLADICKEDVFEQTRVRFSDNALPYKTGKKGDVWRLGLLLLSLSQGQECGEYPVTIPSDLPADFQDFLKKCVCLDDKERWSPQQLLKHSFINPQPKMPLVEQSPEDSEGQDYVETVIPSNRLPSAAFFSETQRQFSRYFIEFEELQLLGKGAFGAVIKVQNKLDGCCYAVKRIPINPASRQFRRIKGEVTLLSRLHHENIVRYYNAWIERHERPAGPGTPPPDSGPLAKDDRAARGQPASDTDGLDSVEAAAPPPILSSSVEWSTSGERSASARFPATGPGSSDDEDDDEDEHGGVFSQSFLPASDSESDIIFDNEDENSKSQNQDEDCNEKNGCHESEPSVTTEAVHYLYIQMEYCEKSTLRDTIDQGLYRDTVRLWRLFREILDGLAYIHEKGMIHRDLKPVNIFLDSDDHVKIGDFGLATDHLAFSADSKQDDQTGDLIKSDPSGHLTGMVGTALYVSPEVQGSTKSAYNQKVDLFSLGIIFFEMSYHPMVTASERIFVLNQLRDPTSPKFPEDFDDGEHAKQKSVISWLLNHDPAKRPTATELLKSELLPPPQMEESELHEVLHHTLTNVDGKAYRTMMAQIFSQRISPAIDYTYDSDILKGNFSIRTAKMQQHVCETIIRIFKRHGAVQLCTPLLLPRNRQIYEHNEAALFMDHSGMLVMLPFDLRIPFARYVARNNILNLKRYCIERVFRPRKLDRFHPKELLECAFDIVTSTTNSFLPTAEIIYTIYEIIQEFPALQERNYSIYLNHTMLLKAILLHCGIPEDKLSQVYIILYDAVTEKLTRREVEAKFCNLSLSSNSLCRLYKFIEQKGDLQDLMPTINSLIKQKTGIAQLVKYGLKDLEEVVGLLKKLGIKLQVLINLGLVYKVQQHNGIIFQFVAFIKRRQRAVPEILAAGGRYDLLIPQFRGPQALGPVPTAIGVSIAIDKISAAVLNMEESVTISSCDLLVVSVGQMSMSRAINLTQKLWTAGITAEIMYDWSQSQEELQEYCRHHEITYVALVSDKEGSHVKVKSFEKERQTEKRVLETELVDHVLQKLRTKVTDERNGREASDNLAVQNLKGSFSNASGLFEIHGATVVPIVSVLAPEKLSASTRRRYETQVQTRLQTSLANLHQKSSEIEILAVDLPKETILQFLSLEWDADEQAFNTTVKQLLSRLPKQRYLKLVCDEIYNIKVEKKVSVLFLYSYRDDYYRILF
T1 sequence (Q9P2K8 whole entry): as above
Chain of recombinant human HRI protein (Q9BQI3 whole entry): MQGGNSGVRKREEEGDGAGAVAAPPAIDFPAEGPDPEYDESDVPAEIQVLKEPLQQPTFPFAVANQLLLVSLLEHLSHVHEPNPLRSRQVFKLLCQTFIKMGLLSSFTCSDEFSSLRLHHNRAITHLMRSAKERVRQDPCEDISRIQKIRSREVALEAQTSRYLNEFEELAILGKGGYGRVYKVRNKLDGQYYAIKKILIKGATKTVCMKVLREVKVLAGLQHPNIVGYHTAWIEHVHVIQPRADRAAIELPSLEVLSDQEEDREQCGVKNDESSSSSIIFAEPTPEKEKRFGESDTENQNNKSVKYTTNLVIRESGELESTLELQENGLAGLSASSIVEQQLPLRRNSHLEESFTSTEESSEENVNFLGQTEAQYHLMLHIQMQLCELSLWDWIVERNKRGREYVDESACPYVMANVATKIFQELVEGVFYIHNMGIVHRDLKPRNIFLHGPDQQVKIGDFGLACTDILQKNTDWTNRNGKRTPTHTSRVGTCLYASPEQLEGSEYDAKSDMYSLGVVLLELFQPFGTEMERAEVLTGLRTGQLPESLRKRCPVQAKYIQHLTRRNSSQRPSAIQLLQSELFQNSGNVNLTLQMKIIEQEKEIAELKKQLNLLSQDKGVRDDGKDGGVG
Chain of recombinant human PKR protein (P19525 whole entry): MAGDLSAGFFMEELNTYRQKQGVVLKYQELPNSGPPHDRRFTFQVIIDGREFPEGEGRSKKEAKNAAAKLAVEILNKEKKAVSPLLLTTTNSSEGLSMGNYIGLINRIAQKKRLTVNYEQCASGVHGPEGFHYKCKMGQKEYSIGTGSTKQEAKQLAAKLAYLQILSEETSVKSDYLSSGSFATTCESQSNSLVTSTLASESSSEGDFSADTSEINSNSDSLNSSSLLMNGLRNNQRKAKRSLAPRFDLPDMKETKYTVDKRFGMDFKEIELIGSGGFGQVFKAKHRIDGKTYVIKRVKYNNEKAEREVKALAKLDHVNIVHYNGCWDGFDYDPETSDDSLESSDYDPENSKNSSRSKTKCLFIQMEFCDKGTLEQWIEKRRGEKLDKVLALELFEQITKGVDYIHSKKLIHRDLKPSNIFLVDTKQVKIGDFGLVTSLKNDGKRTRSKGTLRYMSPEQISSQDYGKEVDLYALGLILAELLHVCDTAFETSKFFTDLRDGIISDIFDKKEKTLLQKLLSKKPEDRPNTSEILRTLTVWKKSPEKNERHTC

SMILES | IC50 [1] | inhibitory effect on ATF4 (FIG. 1) (ATF4) | inhibitory effect on the phosphorylated GCN2 (phosphorylated GCN2) | Phospho-GCN2 inhibition (phosphorylated GCN2) | IC50 [2] | IC50 [3] | IC50 [4]
Cn1c(=O)n(-c2c(F)ccc(NS(=O)(=O)c3cccc4ccccc34)c2F)c(=O)c2cnc(N)nc21 [Example 43, N-(3-(7-amino-1-methyl-2,4-dioxo-1,4-dihydropyrimido[4,5-d]pyrimidin-3(2H)-yl)-2,4-difluorophenyl)naphthalene-1-sulfonamide] | 100 to 300 nM | excellent inhibitory effects | excellent inhibitory effects | ◯ |  |  | 
COc1ccc(Br)cc1S(=O)(=O)Nc1ccc(F)c(-n2c(=O)c3cnc(N)nc3n(C)c2=O)c1F [Example 51, N-(3-(7-amino-1-methyl-2,4-dioxo-1,2-dihydropyrimido[4,5-d]pyrimidin-3(4H)-yl)-2,4-difluorophenyl)-5-bromo-2-methoxybenzenesulfonamide] | 100 to 300 nM | excellent inhibitory effects | excellent inhibitory effects | ◯ |  |  | 
Cn1c(=O)n(-c2c(F)ccc(NS(=O)(=O)c3cc(Cl)cnc3Cl)c2F)c(=O)c2cnc(N)nc21 [Example 57, N-(3-(7-amino-1-methyl-2,4-dioxo-1,4-dihydropyrimido[4,5-d]pyrimidin-3(2H)-yl)-2,4-difluorophenyl)-2,5-dichloropyridine-3-sulfonamide] | < 100 nM |  |  |  | 100 to 300 nM | < 100 nM | 300 to 1000 nM
